One series relates to Mrgpra1 knockout mice. Put plainly: Dendritic cell adoptive transfer into Mrgpra1 KO mice with daily LTG. The format is in vivo, mouse. The conditions noted are these: Mrgpra1 KO animals who received WT dendritic cells; 7-10 days of LTG 50 mg kg−1. As for the experimental part:
Spleens from naïve 129S1 WT mice or Mrgpra1−/− mice were aseptically removed and DCs were isolated using mouse Pan Dendritic Cell isolation kit (Miltenyi Biotec) according to the manufacturer's manual. Briefly, single cell suspensions from spleen were generated by collagenase D/DNase I digestion as above mentioned. Then, cocktail of biotin-conjugated antibodies against non-dendritic cells followed by anti-biotin magnetic microbeads were added to the cell suspensions. Dendritic cells were separated from bead labelled non-dendritic cells using LS column. Dendritic cells freshly isolated either from WT mice or KO animals suspended in 200 μl Hanks' Balanced Salt Solution (HBSS) were injected intravenously (tail vein) into the naïve male Mrgpra1 knockout mice (2×10^6 cells/mouse) one day before starting daily LTG (50 mg kg^−1 body weight) administration.

The target in a further series is MRGPRX4-GFP (Homo sapiens, UniProt Q96LA9). The series is described as follows: Receptor internalization assay, MRGPRX4-GFP HEK293 cells. The format is cell-based. Conditions: 37° C. The method, then:
(§1) To label the drug with red-fluorescent dye, […] of LTG was dissolved in 50 μl dimethyformamide (DMF) first, and further diluted with 450 μl reaction buffer (0.1M sodium bicarbonate buffer, pH9.0) to obtain LTG at a concentration of 7.8 mM. Then, 50 μl of Texas-red-conjugated sulfonyl chloride (Thermo Fisher Scientific, T1905) dissolved in DMF at 10 mg ml−1 was slowly added into LTG solution. The reaction was incubated at 4° C. for 1 hour with continuous stirring. The mixture was then diluted into cell culture medium for further use. LTG labeled with Texas Red dye can create bright red-fluorescence with excitation/emission maxima ˜595/615 nm. HEK293 cells stably expressing Mrgpra1-GFP, Mrgprc11-GFP or MRGPRX4-GFP fusion protein were grown in DMEM with 10% FBS. After 4-6 hours of serum starvation, cells were treated with either medium, dye alone, unlabeled LTG or Texas-Red-labeled LTG at 37° C. for 15 or 60 min. Cells were washed with PBS and fixed with 4% paraformaldehyde in PBS. The subcellular localization of Mrgpr-GFP or drug was visualized under a confocal fluorescence microscope with a 400× magnification (Zeiss LSM 700).

A further series deals with CD11c+MHC-IIhigh cells. The series is described as follows: Calcium imaging of sorted mouse splenocytes. In kind it is cell-based. Conditions: WT CD11c+MHC-IIhigh splenocytes. As for the experimental part: In initial experiments, HEK293 cells were plated on 100 μg/ml poly-D-lysine coated glass cover slips, and transiently transfected with vector containing Mrgprs gene, after 24-48 hours of culture, cells were loaded with Fura 2-acetomethoxy ester calcium indicator (0.5 μM, Molecular Probes) along with pluronic F-127 dispersing agent (0.1%, Molecular Probes) for 30 minutes in the dark at 37° C., then washed with calcium imaging buffer (CIB; NaCl 125 mM, KCl 3 mM, CaCl2 2.5 mM, MgCl2 0.6 mM, HEPES 10 mM, glucose 20 mM, NaHCO3 1.2 mM, sucrose 20 mM, brought to pH 7.4 with NaOH). Drugs were added to Fura 2-loaded cells and intracellular free calcium was measured using 340 nm and 380 nm excitation wavelengths with emission measured at 520 nm with a microscope based imaging system (Nikon Eclipse TE200). Changes in emission fluorescence ratios at 340/380 nm excitation were continuously monitored at 1 second intervals. Later, experiments were performed using Mrgpra1-GFP, Mrgprc11-GFP and MRGPRX4-GFP stable cell lines to confirm the findings obtained from the transiently expressing cells.
To sort different cell types of splenocytes based on CD11c and MHC-II expression, single cell suspension of mouse splenocytes was prepared as above described. Then. […]

Another series concerns the target T1, Mrgpra1-GFP (Mus musculus, UniProt Q91WW5).
T1 construct: expressed in transfected cells
T1 sequence (Q91WW5 1-304): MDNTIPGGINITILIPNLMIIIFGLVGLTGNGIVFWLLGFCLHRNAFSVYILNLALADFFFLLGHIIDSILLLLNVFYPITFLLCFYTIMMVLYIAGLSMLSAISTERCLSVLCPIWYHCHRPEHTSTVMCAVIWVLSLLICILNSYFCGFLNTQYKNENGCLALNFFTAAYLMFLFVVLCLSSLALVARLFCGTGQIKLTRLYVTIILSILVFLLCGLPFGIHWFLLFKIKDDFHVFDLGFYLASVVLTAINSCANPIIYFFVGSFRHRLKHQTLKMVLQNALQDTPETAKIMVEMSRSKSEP
The series is described as follows: Receptor internalization assay, Mrgpra1-GFP HEK293 cells. Conditions: 37° C. The format is cell-based. The method, then:
as §1

Sequence of MRGPRX4-GFP (Q96LA9 whole entry): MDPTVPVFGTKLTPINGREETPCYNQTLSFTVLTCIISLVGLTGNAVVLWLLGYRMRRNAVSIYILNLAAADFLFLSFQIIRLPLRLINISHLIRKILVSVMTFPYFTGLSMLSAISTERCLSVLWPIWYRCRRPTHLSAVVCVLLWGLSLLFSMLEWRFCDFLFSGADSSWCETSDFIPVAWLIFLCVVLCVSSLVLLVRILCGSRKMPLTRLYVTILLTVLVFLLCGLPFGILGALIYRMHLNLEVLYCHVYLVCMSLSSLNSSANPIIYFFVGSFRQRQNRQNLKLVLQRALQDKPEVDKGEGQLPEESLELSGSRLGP

As for `Nc1nnc(-c2cccc(Cl)c2Cl)c(N)n1` [LTG, Lamotrigine], the “animals developing SJS-like eye manifestation” value in the series on Mrgpra1 knockout mice turned out to be 64%. The “internalization of MRGPRX4-GFP” value at MRGPRX4-GFP is given as “can induce the internalization”. Also, the “cells responding (Ca2+ imaging)” value with CD11c+MHC-IIhigh cells is listed as “approximately 5%”. For the same molecule, the “internalization of Mrgpra1-GFP” value at Mrgpra1-GFP is on record as “can induce the internalization”.
